By EC50 is commonly meant the concentration giving half of the maximal effect.

This assay relates to ATF4 luciferase reporter in HEK293T cells. Kind of assay: ATF4-Luc assay (ATF4 luciferase reporter, tunicamycin-treated HEK293T cells). In kind it is cell-based, human. As to conditions: Homo sapiens, HEK-293T; HEK293T cells carrying the ATF4 luciferase reporter, 1 μg/mL tunicamycin, 7 hours. The method, then: In order to test exemplary compounds of the invention in a cellular context, a stable VWMD cell line was first constructed. The ATF4 reporter was prepared by fusing the human full-length ATF4 5′-UTR (NCBI Accession No. BC022088.2) in front of the firefly luciferase (FLuc) coding sequence lacking the initiator methionine as described in Sidrauski et al (eLife 2013). The construct was used to produce recombinant retroviruses using standard methods and the resulting viral supernatant was used to transduce HEK293T cells, which were then subsequently selected with puromycin to generate a stable cell line.
HEK293T cells carrying the ATF4 luciferase reporter were plated on polylysine coated 384-well plates (Greiner Bio-one) at 30,000 cells per well. Cells were treated the next day with 1 μg/mL tunicamycin and 200 nM of a compound of Formula (I) for 7 hours. Luminescence was measured using One Glo (Promega) as specified by the manufacturer. Cells were maintained in DMEM with L-glutamine supplemented with 10% heat-inactivated FBS (Gibco) and Antibiotic-Antimycotic solution (Gibco).
Table 2 below summarizes the EC50 data obtained using the ATF4-Luc assay for exemplary compounds of the invention.
(In general: A reporter such as luciferase makes a cellular process visible.)
With `Cc1ccc(OCC(=O)NC23CC(NC(=O)COc4ccc(Cl)cc4)(C2)C3)cc1` [Compound 115, 2-(4-chlorophenoxy)-N-{3-[2-(4-methylphenoxy)acetamido]bicyclo-[1.1.1]pentan-1-yl}acetamide], the EC50 was 50 to 250 nM. Next, `Cc1cc(OCC(=O)NC23CC(NC(=O)COc4ccc(Cl)cc4)(C2)C3)ccc1Cl` [Compound 116, 2-(4-chloro-3-methylphenoxy)-N-{3-[2-(4-chlorophenoxy)acetamido]bicyclo-[1.1.1]pentan-1-yl}acetamide]: < 10 nM; `O=C(COc1ccc(Cl)cc1)NC12CC(NC(=O)COc3ccc(Cl)c(Cl)c3)(C1)C2` [Compound 117, 2-(4-chlorophenoxy)-N-{3-[2-(3,4-dichlorophenoxy)acetamido]bicyclo-[1.1.1]pentan-1-yl}acetamide]: < 10 nM; `O=C(COc1ccc(Cl)cc1)NC12CC(NC(=O)COc3cccc(Cl)c3)(C1)C2` [Compound 118, 2-(4-chlorophenoxy)-N-{3-[2-(3-chlorophenoxy)acetamido]bicyclo-[1.1.1]pentan-1-yl}acetamide]: 10 to 50 nM. Next, `O=C(COc1ccc(Cl)cc1)NC12CC(NC(=O)COc3cccc(F)c3)(C1)C2` [Compound 119, 2-(4-chlorophenoxy)-N-{3-[2-(3-fluorophenoxy)acetamido]-bicyclo[1.1.1]pentan-1-yl}acetamide]: 50 to 250 nM.

On to `O=C(COc1ccc(F)cc1)NC12CC(NC(=O)COc3ccc(Cl)cc3)(C1)C2` [Compound 120, 2-(4-chlorophenoxy)-N-{3-[2-(4-fluorophenoxy)acetamido]bicyclo-[1.1.1]pentan-1-yl}acetamide], for which the EC50 lay within 10 to 50 nM.

With `O=C(COc1ccc(Cl)c(F)c1)NC12CC(NC(=O)COc3ccc(Cl)c(Cl)c3)(C1)C2` [Compound 121, 2-(4-chloro-3-fluorophenoxy)-N-{3-[2-(3,4-dichlorophenoxy)acetamido]-bicyclo[1.1.1]pentan-1-yl}acetamide], the EC50 is < 10 nM. Next, `O=C(COc1ccc(Cl)c(Cl)c1)NC12CC(NC(=O)COc3ccc(Cl)cc3F)(C1)C2` [Compound 122, 2-(4-chloro-2-fluorophenoxy)-N-{3-[2-(3,4-dichlorophenoxy)acetamido]-bicyclo[1.1.1]pentan-1-yl}acetamide]: < 10 nM; `O=C(COc1ccc(Cl)c(Cl)c1)NC12CC(NCCOc3ccc(Cl)cc3F)(C1)C2` [Compound 123, N-(3-{[2-(4-chloro-2-fluorophenoxy)ethyl]amino}bicyclo[1.1.1]pentan-1-yl)-2-(3,4-dichlorophenoxy)acetamide]: 10 to 50 nM. As for `O=C(COc1ccc(Cl)c(Cl)c1)NC12CC(NCCOc3ccc(Cl)c(F)c3)(C1)C2` [Compound 124, N-(3-{[2-(4-chloro-3-fluorophenoxy)ethyl]amino}bicyclo[1.1.1]pentan-1-yl)-2-(3,4-dichlorophenoxy)acetamide], the figure is 10 to 50 nM. For `O=C(COc1ccc(Cl)c(Cl)c1)NC12CC(NCCOc3ccc(Cl)c(Cl)c3)(C1)C2` [Compound 125, 2-(3,4-dichlorophenoxy)-N-(3-{[2-(3,4-dichlorophenoxy)ethyl]amino}-bicyclo[1.1.1]pentan-1-yl)acetamide], the EC50 is < 10 nM. Consider `COc1cc(OCC(=O)NC23CC(NC(=O)COc4ccc(Cl)c(F)c4)(C2)C3)ccc1Cl` [Compound 126, 2-(4-chloro-3-fluorophenoxy)-N-{3-[2-(4-chloro-3-methoxyphenoxy)acetamido]-bicyclo[1.1.1]pentan-1-yl}acetamide], for which the EC50 is < 10 nM. Next, `CS(=O)(=O)c1ccc(OCC(=O)NC23CC(NC(=O)COc4ccc(Cl)c(F)c4)(C2)C3)cc1` [Compound 127, 2-(4-chloro-3-fluorophenoxy)-N-(3-{2-[4-(methanesulfonyl)-phenoxy]acetamido}-bicyclo[1.1.1]pentan-1-yl)acetamide]: 500 to 2000 nM; `Cc1cccc(COCC(=O)NC23CC(NC(=O)COc4ccc(Cl)c(F)c4)(C2)C3)n1` [Compound 128, 2-(4-chloro-3-fluorophenoxy)-N-(3-{2-[(6-methylpyridin-2-yl)methoxy]acetamido}bicyclo[1.1.1]pentan-1-yl)acetamide]: 500 to 2000 nM. With `O=C(COCc1ccc(Cl)cc1)NC12CC(NC(=O)COc3ccc(Cl)c(F)c3)(C1)C2` [Compound 130, 2-(4-chloro-3-fluorophenoxy)-N-(3-{2-[(4-chlorophenyl)methoxy]acetamido}-bicyclo[1.1.1]pentan-1-yl)acetamide], the EC50 fell in the range of 10 to 50 nM. Next, `O=C(COCc1cccc(Cl)c1)NC12CC(NC(=O)COc3ccc(Cl)c(F)c3)(C1)C2` [Compound 131, 2-(4-chloro-3-fluorophenoxy)-N-(3-{2-[(3-chlorophenyl)methoxy]acetamido}-bicyclo[1.1.1]pentan-1-yl)acetamide]: 10 to 50 nM; `O=C(COCCc1cccc(F)c1)NC12CC(NC(=O)COc3ccc(Cl)c(F)c3)(C1)C2` [Compound 132, 2-(4-chloro-3-fluorophenoxy)-N-(3-{2-[2-(3-fluorophenyl)ethoxy]acetamido}-bicyclo[1.1.1]pentan-1-yl)acetamide]: 50 to 250 nM; `O=C(COCCc1cccc(Cl)c1)NC12CC(NC(=O)COc3ccc(Cl)c(F)c3)(C1)C2` [Compound 133, 2-(4-chloro-3-fluorophenoxy)-N-(3-{2-[2-(3-chlorophenyl)ethoxy]acetamido}-bicyclo[1.1.1]pentan-1-yl)acetamide]: 50 to 250 nM. As for `O=C(COCCc1ccc(F)cc1)NC12CC(NC(=O)COc3ccc(Cl)c(F)c3)(C1)C2` [Compound 134, 2-(4-chloro-3-fluorophenoxy)-N-(3-{2-[2-(4-fluorophenyl)ethoxy]acetamido}-bicyclo[1.1.1]pentan-1-yl)acetamide], the figure is 50 to 250 nM; as for `O=C(COCCc1ccc(Cl)cc1)NC12CC(NC(=O)COc3ccc(Cl)c(F)c3)(C1)C2` [Compound 135, 2-(4-chloro-3-fluorophenoxy)-N-(3-{2-[2-(4-chlorophenyl)ethoxy]acetamido}-bicyclo[1.1.1]pentan-1-yl)acetamide], 250 to 500 nM; as for `Cc1cccc(CCOCC(=O)NC23CC(NC(=O)COc4ccc(Cl)c(F)c4)(C2)C3)c1` [Compound 136, 2-(4-chloro-3-fluorophenoxy)-N-(3-{2-[2-(3-methylphenyl)ethoxy]acetamido}-bicyclo[1.1.1]pentan-1-yl)acetamide], 250 to 500 nM.

As for `Cc1ccc(CCOCC(=O)NC23CC(NC(=O)COc4ccc(Cl)c(F)c4)(C2)C3)cc1` [Compound 137, 2-(4-chloro-3-fluorophenoxy)-N-(3-{2-[2-(4-methylphenyl)ethoxy]acetamido}-bicyclo[1.1.1]pentan-1-yl)acetamide], the EC50 lay in the range of 500 to 2000 nM.

Take `N#Cc1cccc(COCC(=O)NC23CC(NC(=O)COc4ccc(Cl)c(F)c4)(C2)C3)c1` [Compound 138, 2-(4-chloro-3-fluorophenoxy)-N-(3-{2-[(3-cyanophenyl)methoxy]acetamido}-bicyclo[1.1.1]pentan-1-yl)acetamide]: the EC50 lay within 250 to 500 nM. On to `N#Cc1ccc(COCC(=O)NC23CC(NC(=O)COc4ccc(Cl)c(F)c4)(C2)C3)cc1` [Compound 139, 2-(4-chloro-3-fluorophenoxy)-N-(3-{2-[(4-cyanophenyl)methoxy]acetamido}-bicyclo[1.1.1]pentan-1-yl)acetamide], for which the EC50 lay in the range of 250 to 500 nM. As for `Cc1cccc(COCC(=O)NC23CC(NC(=O)COc4ccc(Cl)c(F)c4)(C2)C3)c1` [Compound 140, 2-(4-chloro-3-fluorophenoxy)-N-(3-{2-[(3-methylphenyl)methoxy]acetamido}-bicyclo[1.1.1]pentan-1-yl)acetamide], the EC50 fell in the range of 50 to 250 nM. Next, `CN(C)c1cccc(COCC(=O)NC23CC(NC(=O)COc4ccc(Cl)c(F)c4)(C2)C3)c1` [Compound 141]: 500 to 2000 nM; `O=C(COCc1ccc(F)cc1)NC12CC(NC(=O)COc3ccc(Cl)c(F)c3)(C1)C2` [Compound 142, 2-(4-chloro-3-fluorophenoxy)-N-(3-{2-[(4-fluorophenyl)methoxy]acetamido}-bicyclo[1.1.1]pentan-1-yl)acetamide]: 10 to 50 nM; `CN(C)c1ccc(CCOCC(=O)NC23CC(NC(=O)COc4ccc(Cl)c(F)c4)(C2)C3)cc1` [Compound 143, 2-(4-chloro-3-fluorophenoxy)-N-[3-(2-{2-[4-(dimethylamino)phenyl]ethoxy}-acetamido)bicyclo[1.1.1]pentan-1-yl]acetamide]: > 2000 nM. Regarding `Cc1ccc(COCC(=O)NC23CC(NC(=O)COc4ccc(Cl)c(F)c4)(C2)C3)cc1` [Compound 144, 2-(4-chloro-3-fluorophenoxy)-N-(3-{2-[(4-methylphenyl)methoxy]acetamido}-bicyclo[1.1.1]pentan-1-yl)acetamide], the EC50 lay within 250 to 500 nM. As for `CN(C)c1cccc(CCOCC(=O)NC23CC(NC(=O)COc4ccc(Cl)c(F)c4)(C2)C3)c1` [Compound 145, 2-(4-chloro-3-fluorophenoxy)-N-[3-(2-{2-[3-(dimethylamino)phenyl]ethoxy}-acetamido)bicyclo[1.1.1]pentan-1-yl]acetamide], the figure is > 2000 nM; as for `O=C(COc1cccc(Cl)c1)NC12CC(NC(=O)COc3ccc(Cl)c(F)c3)(C1)C2` [Compound 146, 2-(4-chloro-3-fluorophenoxy)-N-{3-{2-(3-chlorophenoxy)acetamido}-bicyclo[1.1.1]pentan-1-yl}acetamide], < 10 nM.

These data come from US20240166652A1, “MODULATORS OF THE INTEGRATED STRESS PATHWAY” (Calico Life Sciences LLC, priority 2017, published 2024).
